According to publication PMC9573667, “Efficient Oxidative Dearomatisations of Substituted Phenols Using Hypervalent Iodine (III) Reagents and Antiprotozoal Evaluation of the Resulting Cyclohexadienones against T. b. rhodesiense and P. falciparum Strain NF54” (Molecules, 2022):
Like-named read-outs stand apart in the source and are kept apart here.

Tests used:
[1] = tested on: P. falciparum, strain NF54, erythrocytic stages; test: In vitro growth inhibition assay of Plasmodium falciparum NF54 ([3H]-hypoxanthine incorporation); format: cell-based; details: for IC50: Plasmodium falciparum; for ligand efficiency lipophilic price (LELP), P. falciparum / lipophilic ligand efficiency (LLE), P. falciparum: based on IC50 values in nmol/L, DataWarrior 5.5.0
Description: Antimalarial activity was determined in vitro against the erythrocytic stages of P. falciparum using the drug-sensitive strain NF54. Parasite proliferation was assessed by incorporation of [^3H]-hypoxanthine using a modified version of [75]; for details, please refer to the Supplementary Materials. The positive control was chloroquine.
1. Experimental of biological testing
1.1 In vitro growth inhibition assay of Plasmodium falciparum NF54
Plasmodium falciparum, strain NF54, erythrocytic stages, and the standard drug, chloroquine, were used for the assay. The parasite cultures incubated in RPMI 1640 medium with 5% AlbuMAXTM (without hypoxanthine) were exposed to serial drug dilutions in microtiter plates. After 48 h of incubation at 37 °C in a reduced oxygen atmosphere, 0.5 μCi [3H]-hypoxanthine was added to each well of the plate. Cultures were incubated for a further 24 h before they were harvested onto glass-fiber filters and washed with distilled water. The radioactivity was counted using a BetaplateTM liquid scintillation […]
counter (Wallac, Zurich). […]
concentration and expressed as percentage of the untreated controls. IC50 values were calculated from the sigmoidal inhibition curves using Microsoft Excel. Chloroquine was used as control. […]

[2] = tested on: L6 cells rat skeletal myoblasts; test: Cytotoxicity against L6 cells (Alamar blue); format: cell-based; details: read-out: Cyt. L6 IC50
Description: The antiprotozoal activity of 5a,b has already been described in the literature. […] Cytotoxicity was determined using L6 rat skeletal myoblasts to calculate a selectivity index for each parasite (SI = IC50(L6)/IC50(parasite)).
Cytotoxicity was determined in vitro against rat L6 myoblasts as described; details are listed in the supplement. […]
1.3 Cytotoxicity against L6 cells
Assays were performed in 96-well microtiter plates, each well containing 100 μL of RPMI 1640 medium supplemented with 1% L-glutamine (200 mM) and 10% foetal bovine serum, and 4000 L6 cells (a […] cell line derived from rat skeletal myoblasts). Serial drug dilutions of 11 threefold dilution steps covering a range from 100 to 0.002 μg/mL were prepared. After 72 h of incubation, the plates were inspected under an inverted microscope to assure growth of the controls and sterile conditions. 10 μL of Alamar Blue solution was then added to each well and the plates incubated for another 2 h. Then the plates were read with a Spectramax Gemini XS microplate fluorometer (Molecular Devices Cooperation, Sunnyvale, CA, USA) using an excitation wavelength of 536 nm and an emission wavelength of 588 nm.
The IC50 values were calculated by linear regression from the sigmoidal dose inhibition curves using the microplate reader software Softmax Pro (Molecular Devices Cooperation, Sunnyvale, CA, USA).
Podophyllotoxin (Sigma P4405) was used as control.

[3] = tested on: T. brucei rhodesiense, strain STIB900 trypomastigote forms; test: In vitro growth inhibition assay of Trypanosoma brucei rhodesiense STIB900 (Alamar blue); format: cell-based; details: for IC50: Trypanosoma brucei; for ligand efficiency lipophilic price (LELP), T. brucei rhodesiense / lipophilic ligand efficiency (LLE), T. brucei rhodesiense: based on IC50 values in nmol/L, DataWarrior 5.5.0
Description: Trypanocidal activity was determined in vitro against axenically grown bloodstream-forms of T. b. rhodesiense STIB900 as described in Refs. [76, 77] and detailed in the Supplementary Materials. Parasite proliferation was assessed via fluorescence of the redox-sensitive dye resazurin (Alamar blue). The drug melarsoprol was used as the positive control. […]
1.2 In vitro growth inhibition assay of Trypanosoma brucei rhodesiense
Trypanosoma brucei rhodesiense, STIB 900 strain, and the standard drug, melarsoprol, were used for the assay. Minimum Essential Medium (50 μL) supplemented with 25 mM HEPES, 1g/L additional glucose, 1% MEM non-essential amino acids (100x), 0.2 mM 2-mercaptoethanol, 1 mM Na-pyruvate and 15% heat-inactivated horse serum was added to each well of a 96-well microtiter plate. Serial drug dilutions of 11 three-fold dilution steps covering a range from 100 to 0.002 μg/mL were prepared. Then […]
mL double-distilled water) was then added to each well and incubation continued for a further 2–4 h.
Then, the plates were read with a Spectramax Gemini XS microplate fluorometer (Molecular Devices Cooperation, Sunnyvale, CA, USA) using an excitation wavelength of 536 nm and an emission wavelength of 588 nm. The IC50 values were calculated from the sigmoidal inhibition curves using the microplate reader software Softmax Pro (Molecular Devices Cooperation, Sunnyvale, CA, USA).
Melarsoprol was used as control. […]

[4] = NF54, strain NF54, erythrocytic stages, means of two to three measurements, SD <5%, read-out: P. falc. IC50
[5] = strain STIB900 trypomastigote forms, means of two to three measurements, SD <5%, read-out: T. b. rhod. IC50
[6] = L6 rat skeletal myoblasts, 72 h

CCN(CC)CCCC(C)Nc1ccnc2cc(Cl)ccc12 (stereo not drawn) [Chl., chloroquine, reference compound]
IC50 ([1]; NF54, read-out: P. falc. IC50): 0.002 µM | IC50 ([2]; Rattus norvegicus, L6, 72 h): 91.1 µM

COC(=O)CC1(O)C=CC(=O)C=C1 [Compound 4a, Methyl 2-(1-hydroxy-4-oxocyclohexa-2,5-dien-1-yl)acetate]
IC50 [1, 4]: 0.969 µM | ligand efficiency lipophilic price (LELP), P. falciparum [1]: -0.2447 | lipophilic ligand efficiency (LLE), P. falciparum [1]: 6.1690 | IC50 [3, 5]: 588 nM | ligand efficiency lipophilic price (LELP), T. brucei rhodesiense [3]: -0.2362 | lipophilic ligand efficiency (LLE), T. brucei rhodesiense [3]: 6.3859 | IC50 [2, 6]: 0.391 µM

COC(=O)CC1(O)C=CC(=O)C(F)=C1 (stereo not drawn) [Compound 4b, Methyl 2-(3-fluoro-1-hydroxy-4-oxocyclohexa-2,5-dien-1-yl)acetate]
IC50 [1, 4]: 0.644 µM | ligand efficiency lipophilic price (LELP), P. falciparum [1]: 0.07582 | lipophilic ligand efficiency (LLE), P. falciparum [1]: 6.1451 | IC50 [3, 5]: 78 nM | lipophilic ligand efficiency (LLE), T. brucei rhodesiense [3]: 7.0619 | IC50 [2, 6]: 0.657 µM

COC(=O)CC1(O)C=CC(=O)C(Cl)=C1 (stereo not drawn) [Compound 4c, Methyl 2-(3-chloro-1-hydroxy-4-oxocyclohexa-2,5-dien-1-yl)acetate]
IC50 [1, 4]: 0.837 µM | ligand efficiency lipophilic price (LELP), P. falciparum [1]: 0.4433 | lipophilic ligand efficiency (LLE), P. falciparum [1]: 5.8133 | IC50 [3, 5]: 47 nM | ligand efficiency lipophilic price (LELP), T. brucei rhodesiense [3]: 0.3676 | lipophilic ligand efficiency (LLE), T. brucei rhodesiense [3]: 7.0639 | IC50 [2, 6]: 0.44 µM

COC(=O)CC1(O)C=CC(=O)C(Br)=C1 (stereo not drawn) [Compound 4d, Methyl 2-(3-bromo-1-hydroxy-4-oxocyclohexa-2,5-dien-1-yl)acetate]
IC50 [1, 4]: 0.301 µM | ligand efficiency lipophilic price (LELP), P. falciparum [1]: 0.6181 | lipophilic ligand efficiency (LLE), P. falciparum [1]: 6.1264 | IC50 [3, 5]: 42 nM | ligand efficiency lipophilic price (LELP), T. brucei rhodesiense [3]: 0.5464 | lipophilic ligand efficiency (LLE), T. brucei rhodesiense [3]: 6.9818 | IC50 [2, 6]: 0.214 µM

COC(=O)CC1(O)C=C(Cl)C(=O)C(Cl)=C1 [Compound 4e, Methyl 2-(3,5-dichloro-1-hydroxy-4-oxocyclohexa-2,5-dien-1-yl)acetate]
IC50 [1, 4]: 0.245 µM | ligand efficiency lipophilic price (LELP), P. falciparum [1]: 1.1301 | lipophilic ligand efficiency (LLE), P. falciparum [1]: 5.9275 | IC50 [3, 5]: 10 nM | ligand efficiency lipophilic price (LELP), T. brucei rhodesiense [3]: 0.9339 | lipophilic ligand efficiency (LLE), T. brucei rhodesiense [3]: 7.3167 | IC50 [2, 6]: 0.116 µM

COC(=O)CC1(O)C=C(Br)C(=O)C(Br)=C1 [Compound 4f, Methyl 2-(3,5-dibromo-1-hydroxy-4-oxocyclohexa-2,5-dien-1-yl)acetate]
IC50 [1, 4]: 0.391 µM | ligand efficiency lipophilic price (LELP), P. falciparum [1]: 1.613 | lipophilic ligand efficiency (LLE), P. falciparum [1]: 5.4625 | IC50 [3, 5]: 24 nM | ligand efficiency lipophilic price (LELP), T. brucei rhodesiense [3]: 1.3564 | lipophilic ligand efficiency (LLE), T. brucei rhodesiense [3]: 6.6745 | IC50 [2, 6]: 0.199 µM

COC(=O)CCC1(O)C=CC(=O)C=C1 [Compound 4g, Methyl 3-(1-hydroxy-4-oxocyclohexa-2,5-dien-1-yl)propanoate]
ligand efficiency lipophilic price (LELP), P. falciparum [1]: 0.5999 | lipophilic ligand efficiency (LLE), P. falciparum [1]: 4.7892 | IC50 [3, 5]: 4870 nM | ligand efficiency lipophilic price (LELP), T. brucei rhodesiense [3]: 0.5746 | lipophilic ligand efficiency (LLE), T. brucei rhodesiense [3]: 5.0134 | IC50 [2, 6]: > 100 µM | melting point: 49 to 50 °C

O=C1C=CC2(C=C1)CCC(=O)O2 [Compound 4h, 1-Oxaspiro [4.5]deca-6,9-diene-2,8-dione]
ligand efficiency lipophilic price (LELP), P. falciparum [1]: 0.1197 | lipophilic ligand efficiency (LLE), P. falciparum [1]: 5.4846 | IC50 [3, 5]: 4890 nM | ligand efficiency lipophilic price (LELP), T. brucei rhodesiense [3]: 0.1253 | lipophilic ligand efficiency (LLE), T. brucei rhodesiense [3]: 5.2346 | IC50 [2, 6]: 0.425 µM | melting point: 105 to 106 °C

COC(=O)/C=C/C1(O)C=CC(=O)C=C1 [Compound 4i, Methyl (2E)-3-(1-hydroxy-4-oxocyclohexa-2,5-dien-1-yl)prop-2-enoate]
IC50 [1, 4]: 0.657 µM | ligand efficiency lipophilic price (LELP), P. falciparum [1]: 0.07742 | lipophilic ligand efficiency (LLE), P. falciparum [1]: 6.1355 | IC50 [3, 5]: 108 nM | ligand efficiency lipophilic price (LELP), T. brucei rhodesiense [3]: 0.0687 | IC50 [2, 6]: 0.569 µM

O=C1C=C(Cc2ccccc2)C(=O)c2ccccc21 [Compound 5c, 2-Benzyl-1,4-dihydronaphthalene-1,4-dione]
IC50 ([1]; NF54, read-out: P. falc. IC50): 0.917 µM | IC50 ([3]; read-out: T. b. rhod. IC50): 80 nM | IC50 ([3]; read-out: T. brucei rhodesiense IC50): < 100 nM | IC50 ([2]; Rattus norvegicus, L6, 72 h): 22 µM

O=C1C=CC(=O)c2cc(F)ccc21 [Compound 5d, 6-Fluoro-1,4-dihydronaphthalene-1,4-dione]
IC50 [1, 4]: 0.677 µM | ligand efficiency lipophilic price (LELP), P. falciparum [1]: 2.3657 | lipophilic ligand efficiency (LLE), P. falciparum [1]: 4.6292 | IC50 ([3]; STIB900, stated in text in nM, read-out: T. brucei rhodesiense IC50): < 100 nM | IC50 [3, 5]: 93 nM | ligand efficiency lipophilic price (LELP), T. brucei rhodesiense [3]: 2.0757 | lipophilic ligand efficiency (LLE), T. brucei rhodesiense [3]: 5.4913 | IC50 [2, 6]: 2.17 µM | melting point: 119 to 120 °C

O=C1C=CC(=O)c2cc(F)c(F)cc21 [Compound 5e, 6,7-Difluoro-1,4-dihydronaphthalene-1,4-dione]
IC50 [1, 4]: 0.689 µM | ligand efficiency lipophilic price (LELP), P. falciparum [1]: 2.7178 | lipophilic ligand efficiency (LLE), P. falciparum [1]: 4.5208 | IC50 [3, 5]: 166 nM | ligand efficiency lipophilic price (LELP), T. brucei rhodesiense [3]: 2.470 | lipophilic ligand efficiency (LLE), T. brucei rhodesiense [3]: 5.1389 | IC50 [2, 6]: 4.8 µM | melting point: 128 to 130 °C

Nc1nc(N)nc(Nc2ccc([As]3SCC(CO)S3)cc2)n1 (stereo not drawn) [Mel., melarsoprol, reference compound]
IC50 ([3]; read-out: T. b. rhod. IC50): 4 nM | IC50 ([2]; Rattus norvegicus, L6, 72 h): 24.2 µM

COc1cc([C@@H]2c3cc4c(cc3[C@H](O)[C@H]3COC(=O)[C@H]23)OCO4)cc(OC)c1OC [Pod., podophyllotoxin, reference compound]
IC50 ([2]; Rattus norvegicus, L6, 72 h): 0.007 µM
